Results on one compound are retold here after patent US10119972B2, “Reactive labelling compounds and uses thereof” (Academia Sinica, priority 2014, dated 2018).

A short description of series [1]: SPAAC reaction kinetics of 101 with N-azidoacetylmannosamine monitored by 1H-NMR. Format: physicochemical. As to conditions: 20 mM, CD3OD-D2O (5:1, v/v), 25° C. The procedure: To evaluate the feasibility of compound 101 as a reagent for the SPAAC-based fluorescence labeling, its reaction scope and kinetics using benzyl azide as a model substrate was first studied. The SPAAC reaction of 101 with benzyl azide in acetonitrile was completed in 2 h at room temperature to give triazole 111 in 95% yield (Scheme 100). The reactivity of 101 with benzyl azide (1:1) in CD3CN was determined by integration of multiple chemical shifts in the ^1H-NMR spectrum to yield a second-order rate constant of 0.012 M^−1s^−1 at 25° C. […]
Part B: Compound 101 and N-azidoacetylmannosamine were predissolved in CD3OD/D2O (5:1, v/v), and then mixed at equimolar concentration of 20 mM. The reaction was monitored by ^1H-NMR analysis over a period of 1 h. The concentration of each component was determined, based on the concentration of initial compound 101, by integration at multiple chemical shifts in the ^1H-NMR spectrum. […] (M^−1) vs. time (sec), a second order rate constant in unit of M^−1s^−1 was determined using linear regression analysis. […]
FIG. 18 describes a Plot of 1/[101] vs. time for the reaction of compound 101 and N-azidoacetylmannosamine in a solution of CD3OD-D2O (5:1, v/v) as monitored by ^1H-NMR.

The subject of series [2] is living cells. The series can be described thus: Cytotoxicity of probe in living cells. Format: cell-based.

Entries after “also recorded” stand apart in the source; their conditions may differ.

Take `O=c1ccc2cc3c(cc2o1)C#CCCCC3` [Compound 101, 6,7,8,9-Tetrahydro-10,11-didehydro-cycloocta[g]chromen-2(2H)-one]: the second-order rate constant in series [1] stood at 0.010 M⁻¹ s⁻¹. In addition, the cytotoxicity result in series [2] is “low cytotoxicity; also recorded: nontoxic”.
